In patent US7994187B2, “HIV inhibiting 3,4-dihydro-imidazo[4,5-B]pyridin-5-ones” (Tibotec Pharmaceuticals Ltd., priority 2006, dated 2011):

How the values were obtained:
[1] = Cytotoxicity in mock-infected MT4 CMV-EGFP cells (GFP fluorescence); assay type: cell-based; settings: human, 50% cytotoxic concentration as negative log
Excerpt: Analogously, MT4 cells are engineered with GFP and the constitutional cytomegalovirus (CMV) promotor. This cell line is designated MT4 CMV-EGFP, and can be used for the in vitro evaluation of cytotoxicity of investigational compounds. In this cell line, GFP levels are comparably to those of infected MT4 LTR-EGFP cells. Cytotoxic investigational compounds reduce GFP levels of mock-infected MT4 CMV-EGFP cells.
(§1) Effective concentration values such as 50% effective concentration (EC50) can be determined and are usually expressed in μM. An EC50 value is defined as the concentration of test compound that reduces the fluorescence of HIV-infected cells by 50%. The 50% cytotoxic concentration (CC50 in μM) is defined as the concentration of test compound that reduces fluorescence of the mock-infected cells by 50%. The ratio of CC50 to EC50 is defined as the selectivity index (SI) and is an indication of the selectivity of the anti-HIV activity of the inhibitor. The ultimate monitoring of HIV-1 infection and cytotoxicity is done using a scanning microscope. Image analysis allows very sensitive detection of viral infection. Measurements are done before cell necrosis, which usually takes place about five days after infection, in particular measurements are performed three days after infection.

[2] = test system: wild-type HIV-IIIB strain; assay: Anti-viral activity in cellular assay, MT4 LTR-EGFP cells (GFP fluorescence); assay type: cell-based, HIV-1; settings: Human immunodeficiency virus 1, 72 h, pEC50 = -log10(EC50), measured three days after infection
Description: The compounds of the present invention were tested for anti-viral activity in a cellular assay, which was performed according to the following procedure.
The human T-cell line MT4 is engineered with Green Fluorescent Protein (GFP) and an HIV-specific promoter, HIV-1 long terminal repeat (LTR). This cell line is designated MT4 LTR-EGFP, and can be used for the in vitro evaluation of anti-HIV activity of investigational compounds. In HIV-1 infected cells, the Tat protein is produced which upregulates the LTR promotor and finally leads to stimulation of the GFP reporter production, allowing to measure ongoing HIV-infection fluorometrically.
as §1
The following Table 6 lists pEC50 values against wild-type HIV-IIIB strain as well as pEC50 values for a selected number of compounds of the invention. A pEC50 value corresponds to −log10(EC50). Listed are compounds having a pEC50 value of at least 5.00.

Structure (SMILES) | CC50 at 3 days [1] | EC50 [2]
CCNCCNc1ccc2nc3c4ccccc4c(=O)n(-c4ccc([N+](=O)[O-])cc4)c3n2n1 [Compound 128] | 0.851 µM | 0.0309 µM
CN(C)/C=N/c1ccc2nc3c4ccccc4c(=O)n(-c4ccc(Cl)nc4)c3n2c1 [Compound 84, 6-(6-chloro-pyridin-3-yl)-9-[[(dimethylamino)-methylene]amino]-pyrido[2′,1′:2,3]imidazo[4,5-c]isoquinolin-5(6H)-one] | 16.6 µM | 6.17 µM
O=c1c2sccc2c2nc3ccccn3c2n1-c1ccc([N+](=O)[O-])cc1 [Compound 103, 5-(4-nitrophenyl)-pyrido[2′,1′:2,3]imidazo[4,5-b]thieno[3,2-d]pyridin-4(5H)-one] | > 32.4 µM | 1 µM
O=c1c2ccccc2c2nc3ccccn3c2n1-c1ccc(Cl)nc1 [Compound 18] | > 32.4 µM | 8.13 µM
O=C(Nc1ccc2nc3c4ccccc4c(=O)n(-c4ccc([N+](=O)[O-])cc4)c3n2c1)C(F)(F)F [Compound 90] | > 32.4 µM | 0.398 µM
CN(C)CCOc1ccc2nc3c4ccccc4c(=O)n(-c4ccc([N+](=O)[O-])cc4)c3n2c1 [Compound 81] | 13.5 µM | 3.16 µM
CN(C)CCNc1ccc2nc3c4ccccc4c(=O)n(-c4ccc([N+](=O)[O-])cc4)c3n2n1 [Compound 122] | 0.0692 µM | 0.0891 µM
O=c1c2ccccc2c2nc3ccc(NCCCO)nn3c2n1-c1ccc([N+](=O)[O-])cc1 [Compound 118] | > 32.4 µM | 0.646 µM
O=c1c2ccccc2c2nc3ccc(OCCN4CCCC4)cn3c2n1-c1ccc([N+](=O)[O-])cc1 [Compound 78] | > 32.4 µM | 3.02 µM
O=c1c2ccccc2c2nc3ccccn3c2n1-c1ccc(Br)nc1 [Compound 21, 6-(6-bromo-pyridin-3-yl)-pyrido-[2′,1′:2,3]imidazo[4,5-c]isoquinolin-5(6H)-one] | > 32.4 µM | 4.47 µM
CNc1ccc2nc3c4ccccc4c(=O)n(-c4ccc([N+](=O)[O-])cc4)c3n2n1 [Compound 114] | > 32.4 µM | 0.245 µM
O=c1c2ccccc2c2nc3cc(CO)ccn3c2n1-c1ccc([N+](=O)[O-])cc1 [Compound 9] | > 32.4 µM | 0.724 µM
Cc1ccc(-n2c(=O)c3ccccc3c3nc4ccccn4c32)cc1[N+](=O)[O-] [Compound 22] | > 32.4 µM | 2.88 µM
O=c1c2ccccc2c2nc3ccccn3c2n1-c1ccc([N+](=O)[O-])cc1 [Compound 1, 6-(4-nitrophenyl)-pyrido[2′,1′:2,3]imidazo-[4,5-c]isoquinolin-5(6H)-one] | > 32.4 µM | 0.355 µM
O=c1c2ccccc2c2nc3ccc(NCCO)nn3c2n1-c1ccc([N+](=O)[O-])cc1 [Compound 121, 9-[(2-hydroxyethyl)amino]-6-(4-nitrophenyl)-pyridazo[3′,2′:2,3]imidazo[4,5-c]isoquinolin-5(6H)-one] | 14.8 µM | 0.275 µM
Cc1ccc(-n2c(=O)c3ccccc3c3nc4ccccn4c32)cn1 [Compound 19] | > 32.4 µM | 8.91 µM
CN(C)CCCOc1ccc2nc3c4ccccc4c(=O)n(-c4ccc([N+](=O)[O-])cc4)c3n2c1 [Compound 82] | 8.91 µM | 1.12 µM
O=c1c2ccccc2c2nc3ccc(NCCN4CCCC4)cn3c2n1-c1ccc([N+](=O)[O-])cc1 [Compound 67, 6-(4-nitrophenyl)-9-(2-pyrrolidin-1-yl-ethylamino)-pyrido[2′,1′:2,3]imidazo[4,5-c]isoquinolin-5(6H)-one] | 2.63 µM | 0.339 µM

Structure (SMILES) | CC50 at 3 days [1] | EC50 [2]
O=c1c2ccccc2c2nc3ccc(OP(=O)(O)O)cn3c2n1-c1ccc([N+](=O)[O-])cc1 [Compound 76, phosphoric acid 5,6-dihydro-6-(4-nitrophenyl)-5-oxo-pyrido[2′,1′:2,3]imidazo[4,5-c]isoquinolin-9-yl ester] | > 32.4 µM | 0.0741 µM
CN(C)CCCNc1ccc2nc3c4ccccc4c(=O)n(-c4ccc([N+](=O)[O-])cc4)c3n2n1 [Compound 120] | 1.32 µM | 0.631 µM
Nc1ccc2nc3c4ccccc4c(=O)n(-c4ccc(Cl)nc4)c3n2c1 [Compound 53, 9-amino-6-(6-chloro-pyridin-3-yl)-pyrido[2′,1′:2,3]imidazo-[4,5-c]isoquinolin-5(6H)-one] | 4.57 µM | 1.66 µM
O=c1c2ccccc2c2nc3ccc(NCCO)nn3c2n1-c1ccc(Cl)nc1 [Compound 126] | > 32.4 µM | 2.14 µM
O=c1c2cc(Br)ccc2c2nc3ccccn3c2n1-c1ccc([N+](=O)[O-])cc1 [Compound 101, 3-bromo-6-(4-nitrophenyl)-pyrido[2′,1′:2,3]imidazo[4,5-c]isoquinolin-5(6H)-one] | > 100 µM | 2.19 µM
CCc1ccc(-n2c(=O)c3ccccc3c3nc4ccccn4c32)cn1 [Compound 27, 6-(6-ethyl-pyridin-3-yl)-pyrido[2′,1′:2,3]imidazo[4,5-c]-isoquinolin-5(6H)-one] | 26.3 µM | 5.75 µM
O=c1c2ccccc2c2nc3ccc(OP(=O)(O)O)cn3c2n1-c1ccc(Cl)nc1 [Compound 77] | 25.7 µM | 1.12 µM
Cc1cccc2c(=O)n(-c3ccc([N+](=O)[O-])cc3)c3c(nc4ccc(O)cn43)c12 [Compound 110, 9-hydroxy-1-methyl-6-(4-nitrophenyl)-pyrido[2′,1′:2,3]imidazo[4,5-c]isoquinolin-5(6H)-one] | 5.37 µM | 0.0537 µM
O=C(Nc1ccc2nc3c4ccccc4c(=O)n(-c4ccc(Cl)nc4)c3n2c1)C(F)(F)F [Compound 61, N-[6-(6-chloro-pyridin-3-yl)-5,6-dihydro-5-oxo-pyrido[2′,1′:2,3]imidazo[4,5-c]isoquinolin-9-yl]-2,2,2-trifluoro-acetamide] | > 32.4 µM | 2.09 µM
O=c1c2ccccc2c2nc3ccc(NCCNCCO)nn3c2n1-c1ccc([N+](=O)[O-])cc1 [Compound 130] | 3.55 µM | 0.219 µM
O=c1c2ccccc2c2nc3ccc(NCc4ccccc4)nn3c2n1-c1ccc([N+](=O)[O-])cc1 [Compound 125] | > 20 µM | 5.25 µM
Nc1ccc2nc3c4ccccc4c(=O)n(-c4ccc([N+](=O)[O-])cc4)c3n2n1 [Compound 129, 9-amino-6-(4-nitrophenyl)-pyridazo-[3′,2′:2,3]imidazo[4,5-c]isoquinolin-5(6H)-one] | > 32.4 µM | 0.166 µM
CN(C)CCN(C)c1ccc2nc3c4ccccc4c(=O)n(-c4ccc([N+](=O)[O-])cc4)c3n2c1 [Compound 68] | 16.6 µM | 1.23 µM
O=c1c2ccccc2c2nc3ccc(O)cn3c2n1-c1ccc([N+](=O)[O-])cc1 [Compound 10, 9-hydroxy-6-(4-nitrophenyl)-pyrido[2′,1′:2,3]imidazo[4,5-c]isoquinolin-5(6H)-one] | > 32.4 µM | 0.155 µM
O=c1c2ccccc2c2nc3ccc(OCCO)cn3c2n1-c1ccc([N+](=O)[O-])cc1 [Compound 74, 9-[2-hydroxy-ethoxy]-6-(4-nitrophenyl)-pyrido[2′,1′:2,3]imidazo[4,5-c]isoquinolin-5(6H)-one] | > 32.4 µM | 0.871 µM
O=c1c2ccccc2c2nc3sccn3c2n1-c1ccc([N+](=O)[O-])cc1 [Compound 98, 6-(4-nitrophenyl)-thiazolo[2′,3′:2,3]imidazo[4,5-c]isoquinolin-5(6H)-one] | > 32.4 µM | 0.977 µM
O=c1c2ccccc2c2nc3ccc(NCCN4CCCC4)nn3c2n1-c1ccc([N+](=O)[O-])cc1 [Compound 115] | 0.832 µM | 0.912 µM
O=CNc1ccc2nc3c4ccccc4c(=O)n(-c4ccc([N+](=O)[O-])cc4)c3n2c1 [Compound 70] | > 32.4 µM | 0.603 µM
